Test results reported in patent US10335409B2 (priority 2012, dated 2019).
Where two headings read alike, the source gives them in different places.

Columns and labels:
[1] = test system: genotype 1a NS3/4a protease inhibitor resistant variant R155K transient HCV replicon in Huh-7-derived cells; experiment: Transient-transfected HCV replicon EC50, genotype 1a R155K; type: cell-based, hepatitis C virus; conditions: 72 h
[2] = test system: genotype 1b (Con1) stable HCV replicon in Huh-7-derived cells; experiment: Stable subgenomic HCV replicon EC50, genotype 1b (Renilla luciferase); type: cell-based, hepatitis C virus; conditions: stable replicon genotype 1b, 72 h, read-out: EC50 1B RLUC
Procedure, shortened: (§1)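 Compounds, three-fold diluted, were applied to Huh-7-derived cells harbouring luciferase replicons (genotype 1a H77, 1b Con1, 2a JFH-1, 4a ED43, with strain-specific adaptive mutations). Seventy-two hours later, intracellular replication was gauged by Renilla luciferase activity and EC50 derived by regression.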

[3] = test system: genotype 1a (H77) stable HCV replicon in Huh-7-derived cells; experiment: Stable subgenomic HCV replicon EC50, genotype 1a (Renilla luciferase); type: cell-based, hepatitis C virus; conditions: stable replicon genotype 1a, 72 h, read-out: EC50 1A RLUC
Procedure, shortened: as §1

[4] = test system: genotype 3a (S52) wild type transient HCV replicon in Huh-7-derived cells; experiment: Transient-transfected HCV replicon EC50, genotype 3a wild type; type: cell-based, hepatitis C virus; conditions: Hepatitis C virus; transient-transfected replicon genotype 3a wild type, 72 h; read-out: EC50 3A WT
[5] = molecular target: HCV NS3 protease domain genotype 3a (Hepatitis C virus genotype 3a, UniProt Q81258); experiment: Ki determination, NS3 protease genotype 3a (fluorogenic depsipeptide substrate); type: biochemical; conditions: 200 pM enzyme, NS4A peptide
Sequence of HCV NS3 protease domain genotype 3a (Q81258 whole entry, looked up, the tested form may be a part): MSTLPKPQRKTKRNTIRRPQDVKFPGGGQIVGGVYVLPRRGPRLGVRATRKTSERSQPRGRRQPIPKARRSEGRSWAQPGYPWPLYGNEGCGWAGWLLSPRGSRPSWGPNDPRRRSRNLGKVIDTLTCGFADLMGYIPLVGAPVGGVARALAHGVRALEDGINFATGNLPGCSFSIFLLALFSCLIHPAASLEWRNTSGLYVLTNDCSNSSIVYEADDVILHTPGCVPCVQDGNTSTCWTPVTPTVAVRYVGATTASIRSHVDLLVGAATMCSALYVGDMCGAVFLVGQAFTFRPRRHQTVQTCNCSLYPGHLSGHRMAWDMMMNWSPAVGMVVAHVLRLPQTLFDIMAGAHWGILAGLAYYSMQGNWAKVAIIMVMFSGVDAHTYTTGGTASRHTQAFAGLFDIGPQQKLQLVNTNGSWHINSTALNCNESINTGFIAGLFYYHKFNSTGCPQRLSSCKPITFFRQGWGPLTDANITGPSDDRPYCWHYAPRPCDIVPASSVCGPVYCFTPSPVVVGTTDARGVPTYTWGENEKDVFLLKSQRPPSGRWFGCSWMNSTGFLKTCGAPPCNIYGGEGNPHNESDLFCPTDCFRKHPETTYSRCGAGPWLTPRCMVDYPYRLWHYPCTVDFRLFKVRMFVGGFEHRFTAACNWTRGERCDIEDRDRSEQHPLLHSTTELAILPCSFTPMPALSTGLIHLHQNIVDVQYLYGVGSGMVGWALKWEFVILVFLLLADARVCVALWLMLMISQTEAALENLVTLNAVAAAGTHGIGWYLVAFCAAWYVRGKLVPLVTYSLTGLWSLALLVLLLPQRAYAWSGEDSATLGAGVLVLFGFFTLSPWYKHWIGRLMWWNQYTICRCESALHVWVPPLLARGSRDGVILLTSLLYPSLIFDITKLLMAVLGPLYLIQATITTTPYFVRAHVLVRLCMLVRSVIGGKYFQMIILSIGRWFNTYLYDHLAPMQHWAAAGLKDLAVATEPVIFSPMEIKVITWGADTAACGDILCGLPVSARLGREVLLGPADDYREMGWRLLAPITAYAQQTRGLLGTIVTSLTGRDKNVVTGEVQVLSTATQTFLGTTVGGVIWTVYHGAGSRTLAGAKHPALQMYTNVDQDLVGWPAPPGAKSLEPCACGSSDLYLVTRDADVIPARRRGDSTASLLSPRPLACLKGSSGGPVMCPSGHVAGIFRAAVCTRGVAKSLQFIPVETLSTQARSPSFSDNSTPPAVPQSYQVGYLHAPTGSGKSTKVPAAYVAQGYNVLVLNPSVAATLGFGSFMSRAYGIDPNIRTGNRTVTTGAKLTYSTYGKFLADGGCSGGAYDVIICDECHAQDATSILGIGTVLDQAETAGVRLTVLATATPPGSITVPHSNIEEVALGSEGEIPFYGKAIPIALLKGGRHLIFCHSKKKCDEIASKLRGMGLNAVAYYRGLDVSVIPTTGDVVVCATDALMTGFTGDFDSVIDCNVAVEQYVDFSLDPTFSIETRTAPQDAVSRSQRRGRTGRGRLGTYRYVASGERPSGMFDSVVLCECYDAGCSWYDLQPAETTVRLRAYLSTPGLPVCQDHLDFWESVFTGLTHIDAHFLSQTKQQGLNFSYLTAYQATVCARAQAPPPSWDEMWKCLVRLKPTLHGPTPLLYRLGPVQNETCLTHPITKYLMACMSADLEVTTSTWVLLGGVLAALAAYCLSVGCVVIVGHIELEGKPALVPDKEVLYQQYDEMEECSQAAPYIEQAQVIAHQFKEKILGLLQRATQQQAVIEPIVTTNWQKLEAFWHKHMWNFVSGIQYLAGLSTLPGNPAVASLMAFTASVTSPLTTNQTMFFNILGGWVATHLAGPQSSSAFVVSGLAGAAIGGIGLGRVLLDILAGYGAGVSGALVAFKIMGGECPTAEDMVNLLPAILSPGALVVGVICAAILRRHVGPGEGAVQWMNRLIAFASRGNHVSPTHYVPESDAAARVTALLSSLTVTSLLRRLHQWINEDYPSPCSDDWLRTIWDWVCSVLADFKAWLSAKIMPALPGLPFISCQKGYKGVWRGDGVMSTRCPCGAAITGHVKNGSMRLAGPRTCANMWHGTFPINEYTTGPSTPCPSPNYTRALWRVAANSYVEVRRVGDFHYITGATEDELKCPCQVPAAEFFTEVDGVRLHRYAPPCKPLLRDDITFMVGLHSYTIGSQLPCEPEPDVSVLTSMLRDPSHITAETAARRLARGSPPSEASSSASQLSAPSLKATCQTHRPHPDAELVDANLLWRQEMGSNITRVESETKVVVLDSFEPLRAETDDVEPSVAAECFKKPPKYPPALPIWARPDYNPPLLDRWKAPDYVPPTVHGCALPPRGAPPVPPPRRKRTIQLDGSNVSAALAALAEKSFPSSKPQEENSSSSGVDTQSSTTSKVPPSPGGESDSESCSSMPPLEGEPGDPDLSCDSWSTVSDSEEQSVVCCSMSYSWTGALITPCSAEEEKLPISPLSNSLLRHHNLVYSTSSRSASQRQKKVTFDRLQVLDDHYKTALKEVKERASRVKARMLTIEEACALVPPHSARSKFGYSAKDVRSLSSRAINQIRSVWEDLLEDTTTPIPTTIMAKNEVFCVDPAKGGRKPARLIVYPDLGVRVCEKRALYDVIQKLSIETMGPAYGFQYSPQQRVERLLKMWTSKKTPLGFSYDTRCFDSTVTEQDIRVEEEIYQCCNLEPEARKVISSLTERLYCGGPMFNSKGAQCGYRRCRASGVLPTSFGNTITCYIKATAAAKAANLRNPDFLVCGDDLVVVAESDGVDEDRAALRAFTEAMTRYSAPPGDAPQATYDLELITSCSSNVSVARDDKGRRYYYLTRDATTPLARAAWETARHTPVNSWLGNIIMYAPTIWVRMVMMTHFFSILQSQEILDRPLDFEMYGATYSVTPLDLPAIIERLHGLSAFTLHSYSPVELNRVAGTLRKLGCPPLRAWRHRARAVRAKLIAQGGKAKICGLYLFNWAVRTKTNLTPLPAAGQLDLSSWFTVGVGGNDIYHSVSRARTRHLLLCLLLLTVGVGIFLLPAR
Excerpt: Purified NS3 protease domain (amino acids 1-181) of the genotype 1b and 3a virus were generated as above. The internally quenched fluorogenic depsipeptide substrate Ac-DED(Edans)-EEAbuΨ[COO]ASK(Dabcyl)-NH2 and a synthetic peptide containing the hydrophobic core residues of the NS4A protein cofactor ([…]; NS4A peptide) were obtained from Anaspec, Inc. (San Jose, Calif.). Other chemicals and biochemicals were of reagent grade or better and were purchased from standard suppliers.
Reactions were run at room temperature in buffer consisting of 50 mM HEPES, 40% glycerol, 0.05% Triton X-100, 10 mM DTT, and 10% DMSO. The final assay solutions contained 50 pM NS3 genotype 1 b protease or 200 pM genotype 3a protease, 20 μM NS4A peptide, and 4 μM substrate (genotype 1b) or 2 μM substrate (genotype 3a). Inhibitor concentrations varied from 100 nM to 5 pM in 3-fold dilutions, and no-inhibitor controls were included.
Compound dilutions were made in DMSO at 20× final concentration. Reaction mixtures were prepared in 96-well assay plates. A solution of enzyme and NS4A peptide in assay buffer (25 μL volume with both reagents at 4× final concentration) was mixed with 45 μL assay buffer and 5 μL of either inhibitor or DMSO, and pre-incubated at room temperature for 1 hour. The reaction was started by addition of 25 μL substrate solution at 4× final concentration. Plates were mixed vigorously for 5-10 seconds and reactions were allowed to proceed for 90 minutes, fluorescence was measured every 30 s between 90 and 120 minutes reaction time using a Tecan InfiniTe M1000 or PerkinElmer Envision multimode plate reader with an excitation wavelength of 340 nm and an emission wavelength of 490 nm.
Rates were calculated from the progress curves at steady state, in the time frame of 90-120 minutes after addition of substrate. To determine the Ki, rates were plotted as a function of inhibitor concentration, and the data were fit with equation 1 (Morrison, J. F., Biochimica et Biophysica Acta 1969, 185, 269-286) to calculate Ki^app using GraphPad Prism 5. Active fraction of enzyme was determined by active site titration with known potent inhibitors. Ki was calculated from Ki^app/(1+[[S]/Km]).

[6] = test system: genotype 4a (ED43) stable HCV replicon in Huh-7-derived cells; experiment: Stable subgenomic HCV replicon EC50, genotype 4a (Renilla luciferase); type: cell-based, hepatitis C virus; conditions: 72 h, read-out: EC50 4A RLUC
Procedure, shortened: as §1

[7] = test system: genotype 2a (JFH-1) stable HCV replicon in Huh-7-derived cells; experiment: Stable subgenomic HCV replicon EC50, genotype 2a (Renilla luciferase); type: cell-based, hepatitis C virus; conditions: stable replicon genotype 2a, 72 h, read-out: EC50 2A RLUC
Procedure, shortened: as §1

[8] = test system: genotype 1b (Con1) wild type transient HCV replicon in Huh-7-derived cells; experiment: Transient-transfected HCV replicon EC50, genotype 1b wild type; type: cell-based, hepatitis C virus; conditions: 72 h, transient-transfected replicon genotype 1b wild type, read-out: EC50 1B WT
[9] = test system: genotype 3a (S52) stable HCV replicon in Huh-7-derived cells; experiment: Stable subgenomic HCV replicon EC50, genotype 3a (Renilla luciferase); type: cell-based, hepatitis C virus; conditions: 72 h, read-out: EC50 3A RLUC
[10] = test system: genotype 1b NS3/4a protease inhibitor resistant variant D168A transient HCV replicon in Huh-7-derived cells; experiment: Transient-transfected HCV replicon EC50, genotype 1b D168A; type: cell-based, hepatitis C virus; conditions: 72 h
[11] = test system: genotype 1a (H77) wild type transient HCV replicon in Huh-7-derived cells; experiment: Transient-transfected HCV replicon EC50, genotype 1a wild type; type: cell-based, hepatitis C virus; conditions: 72 h, transient-transfected replicon genotype 1a wild type, read-out: EC50 1A WT
[12] = Hepatitis C virus, read-out: EC50 1A R155K, transient-transfected replicon genotype 1a R155K resistant variant, 72 h
[13] = Hepatitis C virus, read-out: EC50 1B D168A, transient-transfected replicon genotype 1b D168A resistant variant, 72 h
[14] = transient-transfected replicon genotype 1a R155K resistant variant, read-out: EC50 1A R155K
[15] = stable replicon genotype 4a, Renilla luciferase
[16] = stable replicon genotype 3a, Renilla luciferase
[17] = transient-transfected replicon genotype 1b D168A resistant variant, read-out: EC50 1B D168A

Structure (SMILES) | EC50 [1, 12] | EC50 ([2]; Hepatitis C virus) | EC50 ([3]; Hepatitis C virus) | EC50 [4] | Ki [5] | EC50 ([6]; Hepatitis C virus) | EC50 ([7]; Hepatitis C virus) | EC50 ([8]; Hepatitis C virus) | EC50 ([9]; Hepatitis C virus) | EC50 [10, 13] | EC50 ([11]; Hepatitis C virus) | EC50 [1, 14] | EC50 [2] | EC50 [3] | EC50 [6, 15] | EC50 [7] | EC50 [8] | EC50 [9, 16] | EC50 [10, 17] | EC50 [11]
CC[C@@H]1[C@@H]2CN(C(=O)[C@H](C(C)(C)C)NC(=O)O[C@@H]3C[C@H]3CCCCCc3nc4ccc(OC)cc4nc3O2)[C@@H]1C(=O)N[C@]1(C(=O)NS(=O)(=O)C2(C)CC2)C[C@H]1C(F)F [Example 1, (1aR,5S,8S,9S,10R,22aR)-5-tert-butyl-N-[(1R,2R)-2-(difluoromethyl)-1-{[(1-methylcyclopropyl)sulfonyl]carbamoyl}cyclopropyl]-9-ethyl-14-methoxy-3,6-dioxo-1,1a,3,4,5,6,9,10,18,19,20,21,22,22a-tetradecahydro-8H-7,10-methanocyclopropa[18,19][1,10,3,6]dioxadiazacyclononadecino[11,12-b]quinoxaline-8-carboxamide] | 4.9 nM | 3.9 nM | 4.4 nM | 17 nM | 0.07 nM | 3.1 nM | 4.1 nM | 2.2 nM | 46 nM | 17 nM | 3.2 nM |  |  |  |  |  |  |  |  | 
CC[C@@H]1[C@@H]2CN(C(=O)[C@H](C(C)(C)C)NC(=O)O[C@]3(C)C[C@H]3CCCCC(F)(F)c3nc4ccc(OC)cc4nc3O2)[C@@H]1C(=O)N[C@]1(C(=O)NS(=O)(=O)C2(C)CC2)C[C@H]1C(F)F [Example 63, (1aR,5S,8S,9S,10R,22aR)-5-tert-butyl-N-[(1R,2R)-2-(difluoromethyl)-1-{[(1-methylcyclopropyl)sulfonyl]carbamoyl}cyclopropyl]-9-ethyl-18,18-difluoro-14-methoxy-1a-methyl-3,6-dioxo-1,1a,3,4,5,6,9,10,18,19,20,21,22,22a-tetradecahydro-8H-7,10-methanocyclopropa[18,19][1,10,3,6]dioxadiazacyclononadecino[11,12-b]quinoxaline-8-carboxamide] | 4 nM | 2.9 nM | 4.2 nM | 6.9 nM | 0.01 nM | 3.2 nM | 3.2 nM | 2.1 nM | 11 nM | 3.4 nM | 4.1 nM |  |  |  |  |  |  |  |  | 
CC[C@@H]1[C@@H]2CN(C(=O)[C@H](C(C)(C)C)NC(=O)O[C@@]3(C(F)(F)F)CCCC3CCCCCc3nc4ccc(OC)cc4nc3O2)[C@@H]1C(=O)N[C@]1(C(=O)NS(=O)(=O)C2(C)CC2)C[C@H]1C(F)F (stereo partly drawn) [Example 10, (7S,10S,11S,12R)-7-tert-butyl-N-[(1R,2R)-2-(difluoromethyl)-1-{[(1-methylcyclopropyl)sulfonyl]carbamoyl}cyclopropyl]-11-ethyl-16-methoxy-5,8-dioxo-3aS-(trifluoromethyl)-1,2,3,3a,5,6,7,8,11,12,20,21,22,23,24,24a-hexadecahydro-10H-9,12-methanocyclopenta[18,19][1,10,3,6]dioxadiazacyclononadecino[11,12-b]quinoxaline-10-carboxamide] |  |  |  |  | 0.52 nM |  |  |  |  |  |  | 131 nM | 22 nM | 30 nM | 26 nM | 49 nM | 10 nM | 978 nM | 493 nM | 37 nM
CC[C@]12C[C@@H]1CCCCCc1nc3ccc(OC)cc3nc1O[C@H]1CN(C(=O)[C@H](C(C)(C)C)NC(=O)O2)[C@H](C(=O)N[C@]2(C(=O)NS(=O)(=O)C3(C)CC3)C[C@H]2C(F)F)[C@@H]1C [Example 42, (1aS,5S,8S,9S,10R,22aS)-5-tert-butyl-N-[(1R,2R)-2-(difluoromethyl)-1-{[(1-methylcyclopropyl)sulfonyl]carbamoyl}cyclopropyl]-1a-ethyl-14-methoxy-9-methyl-3,6-dioxo-1,1a,3,4,5,6,9,10,18,19,20,21,22,22a-tetradecahydro-8H-7,10-methanocyclopropa[18,19][1,10,3,6]dioxadiazacyclononadecino[11,12-b]quinoxaline-8-carboxamide] | 35 nM | 16 nM | 20 nM |  | 0.75 nM | 14 nM | 17 nM | 10 nM | 343 nM | 109 nM | 17 nM |  |  |  |  |  |  |  |  | 
CC[C@@H]1[C@@H]2CN(C(=O)[C@H](C(C)(C)C)NC(=O)O[C@]3(C(F)(F)F)CCCC3CCCCCc3nc4ccc(OC)cc4nc3O2)[C@@H]1C(=O)N[C@]1(C(=O)NS(=O)(=O)C2(C)CC2)C[C@H]1C(F)F (stereo partly drawn) [Example 9, (7S,10S,11S,12R)-7-tert-butyl-N-[(1R,2R)-2-(difluoromethyl)-1-{[(1-methylcyclopropyl)sulfonyl]carbamoyl}cyclopropyl]-11-ethyl-16-methoxy-5,8-dioxo-3aR-(trifluoromethyl)-1,2,3,3a,5,6,7,8,11,12,20,21,22,23,24,24a-hexadecahydro-10H-9,12-methanocyclopenta[18,19][1,10,3,6]dioxadiazacyclononadecino[11,12-b]quinoxaline-10-carboxamide] |  |  |  |  | 0.59 nM |  |  |  |  |  |  | 208 nM | 7.9 nM | 17 nM | 11 nM | 23 nM | 2.5 nM | 1270 nM | 360 nM | 12 nM
COc1ccc2nc3c(nc2c1)O[C@H]1CN(C(=O)[C@H](C(C)(C)C)NC(=O)O[C@@H]2CCC[C@H]2CCCCC3)[C@H](C(=O)N[C@]2(C(=O)NS(=O)(=O)C3(C)CC3)C[C@H]2C(F)F)[C@@H]1C [Example 27, (3aR,7S10S,1S,12R,24aR)-7-tert-butyl-N-[(1R,2R)-2-(difluoromethyl)-1-{[(1-methylcyclopropyl)sulfonyl]carbamoyl}cyclopropyl]-16-methoxy-11-methyl-5,8-dioxo-1,2,3,3a,5,6,7,8,11,12,20,21,22,23,24,24a-hexadecahydro-10H-9,12-methanocyclopenta[18,19][1,10,3,6]dioxadiazacyclononadecino[11,12-b]quinoxaline-10-carboxamide] | 20 nM | 5.2 nM | 6.6 nM |  | 0.08 nM | 6.1 nM | 6.7 nM | 4.3 nM | 266 nM | 70 nM | 6 nM |  |  |  |  |  |  |  |  | 
